Reference: PubChem BioAssay (NCI)
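Interpolation was linear, between the two tested concentrations surrounding the appropriate level; five concentrations were tested over 48 hours in 96-well plates. The concentration for 50% growth inhibition is given as GI50. TGI marks complete inhibition of growth.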 Where a SMILES comes first, the peptide text is derived from it. [ ]: non-standard residue; d: D form. The star is where a group is joined. ξ: configuration not given here. Propanoyl(3-(4-MeO-Ph)) = COc1ccc(CCC(=O)*)cc1; Thr(3ξ) = CC(O)[C@H](N)C(=O)O; dNMeL = CN[C@H](CC(C)C)C(=O)O; ξLac = CC(O)C(=O)O

Experiments:
Assay in all cases: DTP human tumour cell line panel, 48 h
[1] = tested on: ACHN renal
[2] = tested on: KM12 colon
[3] = tested on: CAKI-1 renal
[4] = tested on: HCC-2998 colon
[5] = tested on: SNB-75 CNS
[6] = tested on: RXF 393 renal
[7] = tested on: OVCAR-4 ovarian
[8] = tested on: UO-31 renal
[9] = tested on: SK-MEL-28 melanoma
[10] = tested on: SF-268 CNS

| SMILES | TGI [1] [µM] | TGI [2] [µM] | TGI [3] [µM] | TGI [4] [µM] | TGI [5] [µM] | TGI [6] [µM] | TGI [7] [µM] | TGI [8] [µM] | TGI [9] [µM] | TGI [10] [µM] | GI50 [9] [µM] | GI50 [4] [µM] | GI50 [5] [µM] |
| --- | --- | --- | --- | --- | --- | --- | --- | --- | --- | --- | --- | --- | --- |
| Cc1ccc(C(=O)C2=CN=C3C(=O)N(c4ccccc4)N(C)C3(C)C2=N)cc1 (configuration not stated) | > 100 | > 100 | > 100 | > 100 | > 100 | > 100 | > 100 | > 100 | – | – | – | – | – |
| COC(=O)[C@@]12OC[C@]34C([C@@H](O)C1O)[C@@]1(C)CC(=O)C(O)=C(C)C1C[C@H]3OC(=O)[C@H](OC(=O)/C=C(/c1ccccc1)C(F)(F)F)[C@H]42 (some centres not stated) | 17.5 | > 25 | > 25 | 8.04 | 18.6 | 17.5 | > 25 | > 25 | 15.9 | > 25 | – | – | – |
| CCOC(=O)C1C[C@H]2CO[C@H](c3ccccc3)N2C1=O (some centres not stated) | > 100 | > 100 | > 100 | > 100 | > 100 | > 100 | > 100 | > 100 | > 100 | > 100 | – | – | – |
| CCOC(=O)Cn1nnc2cc(Nc3nc4ccccc4nc3C(=O)OCC)ccc21 | > 100 | > 100 | > 100 | > 100 | 9.39 | 64.8 | > 100 | 19.4 | > 100 | > 100 | – | – | – |
| NC(=O)c1ncn2c(=O)n(CCl)nnc12 | > 100 | > 100 | > 100 | > 100 | > 100 | > 100 | > 100 | > 100 | > 100 | > 100 | – | – | – |
| CCCCC1(N=[N+]=[N-])C(=O)C2C=CC=C3c4ccccc4N(C1=O)C32 (configuration not stated) | > 31.6 | > 31.6 | > 31.6 | > 31.6 | 23.1 | 23.7 | > 31.6 | > 31.6 | > 100 | > 31.6 | – | – | – |
| C/C(=N\NC(=O)c1cccnc1)c1cccc(/C(C)=N/NC(=O)c2cccnc2)n1.CC(=O)[O-].CC(=O)[O-].[Zn+2] | > 68 | > 100 | 31.4 | > 100 | 98.2 | 36.8 | > 100 | > 100 | > 100 | 84.4 | 29.4 | 0.995 | 24.7 |
| COc1ccc(N=N/C(=N/NC(=O)c2cc(Cl)ccc2C(=O)c2ccccc2)c2ccc(N(CCC#N)CCC#N)cc2C)cc1 | 88.7 | > 100 | 46 | 70.8 | > 100 | 30.4 | > 100 | 79.3 | > 100 | > 100 | – | – | – |
| CC1CC(=O)Nc2ccc(N=NN(C)C)cc2N1C=O (configuration not stated) | > 100 | > 100 | > 100 | > 100 | > 100 | > 100 | > 100 | > 100 | > 100 | > 100 | – | – | – |
| O=C1OC(c2ccc(Cl)cc2)(c2ccc(Cl)cc2)c2c1ccc1ccccc21 | > 100 | > 100 | > 100 | > 100 | > 100 | > 100 | > 100 | > 100 | > 100 | > 100 | – | – | – |
| CCOc1cc2c(cc1O)CC[C@@H]1[C@@H]2CC[C@]2(C)C(OS(=O)OC3CC[C@@H]4[C@H]5CCc6cc(O)c(OCC)cc6[C@@H]5CC[C@@]34C)CC[C@@H]12 (some centres not stated) | > 81.7 | > 35.1 | 26 | 31.9 | 34.4 | > 20.5 | > 64.5 | 27.4 | 11.7 | > 100 | – | – | – |
| CCNc1cc2c3c(c1)CCCN3CCC2 | 63.1 | 29.9 | > 100 | 70.8 | 32.7 | > 100 | 32.3 | > 100 | 87.5 | 33.3 | – | – | – |
| CC(O)c1cc2c(s1)C(=O)c1scc(C(C)O)c1C2=O (configuration not stated) | 2.47 | – | 2.74 | 3.46 | 0.767 | 2.57 | 1.73 | 1.41 | 0.62 | 0.889 | – | – | – |
| COC(=O)[C@@H](NC(=O)[C@@H](CC(C)C)N(C)C(=O)[C@@H]1CCCN1C(=O)C(C)O)C(C)OC(=O)CCc1ccc(OC)cc1 (some centres not stated) (H-[ξLac]P[dNMeL][Thr(3ξ)](Propanoyl(3-(4-MeO-Ph)))-OMe) | > 100 | > 100 | > 100 | > 100 | > 100 | > 100 | > 100 | > 100 | > 100 | > 100 | – | – | – |
| COc1ccc(CCNC(=O)CCCCCO)cc1OC | > 100 | > 100 | > 100 | > 100 | > 100 | > 100 | > 100 | > 100 | > 100 | > 100 | – | – | – |
| CO[C@H]1C[C@H](n2cc(C)c(=O)[nH]c2=O)O[C@@H]1CO | > 100 | > 100 | > 100 | > 100 | > 100 | > 100 | > 100 | > 100 | > 100 | > 100 | – | – | – |
| COc1ccc(/C(Cl)=C(\C=O)c2ccccc2)cc1OC | > 100 | – | > 100 | > 100 | 52.2 | 69 | > 100 | > 100 | – | > 100 | – | – | – |

| SMILES | TGI [1] [µM] | TGI [2] [µM] | TGI [3] [µM] | TGI [4] [µM] | TGI [5] [µM] | TGI [6] [µM] | TGI [7] [µM] | TGI [8] [µM] | TGI [9] [µM] | TGI [10] [µM] | GI50 [9] [µM] | GI50 [4] [µM] | GI50 [5] [µM] |
| --- | --- | --- | --- | --- | --- | --- | --- | --- | --- | --- | --- | --- | --- |
| Cc1cc2c(c(C(=O)NCCC(=O)N[C@@H](C)C(=O)OCc3ccccc3)c1)Oc1c(cc(C)cc1C(=O)NCCC(=O)N[C@@H](C)C(=O)OCc1ccccc1)S2 | > 100 | > 100 | > 100 | > 100 | > 100 | > 100 | > 100 | > 100 | – | > 100 | – | – | – |
| COc1ccc(N2C(N)=C(C#N)C(C#N)(C#N)C2c2cccc([N+](=O)[O-])c2)cc1 (configuration not stated) | 27.4 | 33.9 | 23.4 | 31.8 | 35.1 | 23.6 | 32 | 31.3 | 23.6 | 44 | – | – | – |
| NNC(=O)CCC(NS(=O)(=O)c1ccc(Cl)cc1)C(=O)NN (configuration not stated) | > 100 | > 100 | > 100 | > 100 | > 100 | > 100 | > 100 | > 100 | > 100 | > 100 | – | – | – |
| COc1ccc(NCc2cnc3nc(N)nc(N)c3c2C)cc1 | > 100 | > 100 | > 100 | > 31.6 | > 100 | > 100 | > 100 | > 100 | > 100 | > 100 | – | – | – |
| COc1ccc2oc(=Nc3ccc(F)cc3)c(C(N)=O)cc2c1 | > 100 | > 100 | > 100 | > 100 | 29.5 | 37.3 | > 100 | > 100 | > 100 | > 100 | – | – | – |
| CC(C)=CCCC1(Sc2ccccc2)C(=O)OCC1C=C(C)C (configuration not stated) | > 100 | > 100 | > 100 | > 100 | > 100 | 45.1 | > 100 | > 100 | > 100 | > 100 | – | – | – |
| O=[N+]([O-])c1ccc2nc(/C=C(\O)c3ccccc3)c(/C=C(\O)c3ccccc3)nc2c1 | > 100 | > 100 | > 79 | > 100 | 32.1 | 38.2 | 32.5 | 31.6 | > 100 | 53.4 | 8.3 | – | – |
| NC(=O)C[C@H](NC(=O)C1(NC(=O)[C@H](Cc2ccc(CP(=O)(O)O)cc2)NC(=O)C(=O)O)CCCCC1)C(=O)NCCCc1cccc2ccccc12 | > 10 | > 10 | > 10 | > 10 | > 10 | > 10 | > 10 | > 10 | > 10 | > 10 | – | – | – |
| COP(=O)(OC)c1ccc(NCc2cc(O)ccc2O)cc1 | 32.2 | 38.4 | 34.6 | 51.6 | > 77.7 | 74.9 | > 59 | 29.3 | > 70.2 | 43.6 | – | – | – |
| Cc1oncc1NC1=CC(=O)C(=O)c2ccccc21 | 16.7 | 42.1 | 22.6 | 33.4 | 27.2 | 27.5 | 12.9 | 27.9 | 29.2 | 30.3 | – | – | – |
| CCCCCC(O)(CCCCC)CCCCCCCCC1=C(O)c2ccccc2C(=O)C1=O | > 100 | 19.4 | > 56.1 | 30.5 | > 80.2 | 29.9 | > 48.8 | 28 | > 46.2 | 33.7 | – | – | – |
| Cc1cc(C)c2c(=N)c3ccccc3n(CCCCCCn3c4ccccc4c(=N)c4c(C)cc(C)nc43)c2n1 | 2.91 | 0.973 | 2.52 | 0.323 | 1.43 | 2.54 | 3.01 | 2.91 | 2.64 | – | – | – | – |
| COc1cc(C2c3cc4c(cc3OC3(OC)COC(=O)C23)OCO4)cc(OC)c1OC (configuration not stated) | > 100 | 7.68 | > 90.2 | 14.9 | > 100 | 11.7 | > 100 | > 100 | > 100 | > 85.6 | – | – | – |
| COc1cc(/C=c2/c3ccccc3n3c2cc(-c2ccccc2)[n+]3C)cc(OC)c1OC | 15 | 3.67 | 11.8 | 19 | 15.2 | 6.18 | 8.61 | > 35.9 | 19.1 | 22.9 | – | – | – |
| CCCC(=O)Nc1cc(/C=C/C(=O)N2CC(CCl)c3c2cc([N+](=O)[O-])c2ccccc32)n(C)c1 (configuration not stated) | > 100 | > 82.6 | > 100 | > 100 | 97.7 | > 100 | > 100 | > 100 | > 100 | > 100 | – | – | – |
| CN(C)CCNC(=O)c1cccc2[nH]c(-c3ccncc3)nc12 | 28.4 | > 35.7 | 5.95 | 4.34 | 26.5 | 14.5 | > 100 | 6.76 | 3.93 | 47.4 | – | – | – |
| COc1ccc(/C=N/n2cnc3c(c2=O)S/C(=C2/SC(=S)N(c4ccc(C)cc4)C2=O)N3c2ccccc2)cc1 | > 100 | > 100 | > 10 | > 100 | > 100 | 35.8 | 94.1 | > 100 | > 100 | 99.5 | – | – | – |
